Assay results taken from ChEMBL document CHEMBL1144987, “Synthesis and In vivo anti-inflammatory activity of long-chain 2-amino-alcohols” (2003).

How the values were obtained:
Format in all cases: functional
Rattus norvegicus [1] = experiment: Analgesic activity in rats by acetic acid writhing test at a dose of 0.017 mmol/kg
Rattus norvegicus [2] = experiment: In vivo antiinflammatory activity by rat carrageenan-induced paw edema assay
Rattus norvegicus [3] = experiment: Analgesic activity in rats by acetic acid writhing test at a dose of 0.010 mmol/kg

Structure (SMILES) | Analgesic activity (Rattus norvegicus [1]) [%] | ED50 (Rattus norvegicus [2]) [µmol/kg] | Analgesic activity (Rattus norvegicus [3]) [%]
COc1ccc2c(c1)c(CC(=O)O)c(C)n2C(=O)c1ccc(Cl)cc1 [INDOMETHACIN] | 47 | 11 | –
CCCCCCCCCCCCOC[C@@H](N)CO.Cl | – | 10 | 95.6
CCCCCCCCCCCCCC[C@@H](N)CO.Cl | 72.6 | 17 | –
CCCCCCCC/C=C/CCCCCC[C@H](N)CO.Cl | – | 10 | 88.1
CCCCCCCCCCCCCC[C@H](N)CO.Cl | 89.2 | 17 | –
